In the assay the target is T1, LATS1 (Homo sapiens, UniProt O95835).
T1 construct: purchased Thermo Fisher Scientific (Life Technologies) SelectScreen
Briefly: SelectScreen LanthaScreen. The class given is binding. The note with it: read-out: % displacement. In a few lines: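 NU5455 was profiled across the SelectScreen Broad panel of kinase activity and binding assays. Z'LYTE reactions such as CSF1R ran at apparent Km ATP, while the Adapta CAMK1 assay used ATP listed as 10. Values are given as percent.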

T1 sequence (O95835 whole entry): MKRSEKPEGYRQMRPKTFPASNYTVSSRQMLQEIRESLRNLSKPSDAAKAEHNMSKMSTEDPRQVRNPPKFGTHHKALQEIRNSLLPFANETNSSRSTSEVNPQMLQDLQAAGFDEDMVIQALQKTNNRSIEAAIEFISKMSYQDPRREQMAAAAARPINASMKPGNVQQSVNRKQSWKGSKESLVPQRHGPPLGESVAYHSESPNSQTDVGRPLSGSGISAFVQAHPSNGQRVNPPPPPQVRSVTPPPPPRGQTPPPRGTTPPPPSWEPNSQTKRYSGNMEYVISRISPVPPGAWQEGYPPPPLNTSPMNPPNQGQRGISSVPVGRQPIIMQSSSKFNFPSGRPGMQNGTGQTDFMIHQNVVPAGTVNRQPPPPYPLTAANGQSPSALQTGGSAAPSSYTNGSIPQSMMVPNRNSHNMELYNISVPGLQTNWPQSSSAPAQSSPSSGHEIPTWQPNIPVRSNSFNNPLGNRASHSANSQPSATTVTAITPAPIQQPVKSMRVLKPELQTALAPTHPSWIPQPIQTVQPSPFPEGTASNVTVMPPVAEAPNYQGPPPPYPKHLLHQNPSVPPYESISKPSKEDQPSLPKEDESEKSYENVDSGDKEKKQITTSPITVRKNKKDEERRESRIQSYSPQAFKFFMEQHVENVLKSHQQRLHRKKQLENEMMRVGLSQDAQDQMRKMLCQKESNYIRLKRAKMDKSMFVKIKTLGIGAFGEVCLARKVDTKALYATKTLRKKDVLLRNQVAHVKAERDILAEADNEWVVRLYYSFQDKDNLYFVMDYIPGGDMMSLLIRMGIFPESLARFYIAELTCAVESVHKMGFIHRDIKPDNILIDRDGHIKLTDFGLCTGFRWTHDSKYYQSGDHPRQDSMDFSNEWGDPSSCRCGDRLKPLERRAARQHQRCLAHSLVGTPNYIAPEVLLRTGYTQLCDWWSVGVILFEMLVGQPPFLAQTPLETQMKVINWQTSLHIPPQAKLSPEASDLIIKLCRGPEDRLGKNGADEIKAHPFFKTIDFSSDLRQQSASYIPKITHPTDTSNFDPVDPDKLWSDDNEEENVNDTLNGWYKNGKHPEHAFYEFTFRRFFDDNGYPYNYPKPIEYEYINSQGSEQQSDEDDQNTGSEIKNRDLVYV

In the case of `CN(C(=O)CN1CCOCC1)c1ccc2sc3c(-c4cccc5c(=O)cc(N6CC7CCC(C6)O7)oc45)cccc3c2c1` [NU5455], the inhibition at 1 µM is -1.3%.

Values taken from paper PMC6934184, “Selective DNA-PKcs inhibition extends the therapeutic index of localized radiotherapy and chemotherapy” (The Journal of Clinical Investigation, 2019).
